In patent publication US8906928B2, “Substituted pyrazolo-pyrrolo-pyridine-dione compounds” (ArQule, Inc., priority 2009, dated 2014):

Key:
MDA-MB = assay: MTS assay (cell growth inhibition), MDA-MB; type: cell-based; details: MDA-MB cells, 72 hours incubation with test compound; concentration not given
Summary of the method: (§1)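 First, seed 3000 cells per well in low-serum (1% FBS) DMEM and culture 18 h. Next, add compounds prepared at 300× in DMSO and diluted 1:40 in DMEM; incubate 72 h. Finally, add MTS/PMS for 4 h and measure absorbance at 492 nm.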

PC-3 = assay: MTS assay (cell growth inhibition), PC-3; type: cell-based; details: PC-3 cells, 72 hours incubation with test compound; concentration not given
Summary of the method: as §1

PACA-2 = assay: MTS assay (cell growth inhibition), PACA-2; type: cell-based; details: PACA-2 cells, 72 hours incubation with test compound; concentration not given
Summary of the method: as §1

Kato III = assay: MTS assay (cell growth inhibition), Kato III; type: cell-based; details: Kato III cells, 72 hours incubation with test compound; concentration not given
Summary of the method: as §1

DLD-1 = assay: MTS assay (cell growth inhibition), DLD-1; type: cell-based; details: DLD-1 cells, 72 hours incubation with test compound; concentration not given
Summary of the method: as §1

NCI-H1299 = assay: MTS assay (cell growth inhibition), NCI-H1299; type: cell-based; details: NCI-H1299 cells, 72 hours incubation with test compound; concentration not given
Summary of the method: as §1

melting point [°C] | Structure (SMILES) | MTS CELL KILL DATA (% INHIBITION) MDA-MB (MDA-MB) | MTS CELL KILL DATA (% INHIBITION) PC-3 (PC-3) | MTS CELL KILL DATA (% INHIBITION) PACA-2 (PACA-2) | MTS CELL KILL DATA (% INHIBITION) Kato III (Kato III) | MTS CELL KILL DATA (% INHIBITION) DLD-1 (DLD-1) | MTS CELL KILL DATA (% INHIBITION) NCI-H1299 (NCI-H1299)
134 to 137 | CC(C)(C)OC(=O)N1CCC(CN2C(=O)c3cnc4[nH]ncc4c3C2=O)CC1 [Example 140, tert-butyl 4-[(6,8-dioxo-6,8-dihydropyrazolo[3,4-b]pyrrolo[3,4-d]pyridin-7(3H)-yl)methyl]piperidine-1-carboxylate] | A (A = 80-100% INHIBITION) | A (A = 80-100% INHIBITION) | A (A = 80-100% INHIBITION) | C (C = <50% INHIBITION) | C (C = <50% INHIBITION) | C (C = <50% INHIBITION)
237 to 239 | O=C1c2cnc3[nH]ncc3c2C(=O)N1CCc1ccccc1 [Example 2, 7-(2-phenylethyl)pyrazolo[3,4-b]pyrrolo[3,4-d]pyridine-6,8(3H,7H)-dione] | A (A = 80-100% INHIBITION) | A (A = 80-100% INHIBITION) | A (A = 80-100% INHIBITION) | A (A = 80-100% INHIBITION) | A (A = 80-100% INHIBITION) | A (A = 80-100% INHIBITION)
99 to 100 | COc1cccc(-c2ccccc2CN2C(=O)c3cnc4[nH]ncc4c3C2=O)c1 [Example 147, 7-[(3′-methoxybiphenyl-2-yl)methyl]pyrazolo[3,4-b]pyrrolo[3,4-d]pyridine-6,8(3H,7H)-dione] | – | – | – | – | – | –
285 to 300 | O=C1NC(=O)c2c1cnc1[nH]ncc21 [Example 1, pyrazolo[3,4-b]pyrrolo[3,4-d]pyridine-6,8(3H,7H)-dione] | – | – | – | – | – | –
285 to 287 | N#Cc1ccccc1CN1C(=O)c2cnc3[nH]ncc3c2C1=O [Example 108, 2-[(6,8-dioxo-6,8-dihydropyrazolo[3,4-b]pyrrolo[3,4-d]pyridin-7(3H)-yl)methyl]benzonitrile] | – | – | – | – | – | –
208 to 211 | COc1ccc(OC)c(-c2ccccc2CN2C(=O)c3cnc4[nH]ncc4c3C2=O)c1 [Example 143, 7-[(2′,5′-dimethoxybiphenyl-2-yl)methyl]pyrazolo[3,4-b]pyrrolo[3,4-d]pyridine-6,8(3H,7H)-done] | A (A = 80-100% INHIBITION) | A (A = 80-100% INHIBITION) | C (C = <50% INHIBITION) | C (C = <50% INHIBITION) | C (C = <50% INHIBITION) | C (C = <50% INHIBITION)
224 to 228 | O=C1c2cnc3[nH]nc(-c4ccccc4)c3c2C(=O)N1Cc1c(F)cccc1Cl [Example 169, 7-(2-chloro-6-fluorobenzyl)-1-phenylpyrazolo[3,4-b]pyrrolo[3,4-d]pyridine-6,8(3H,7H)-dione] | – | – | – | – | – | –
> 300 | O=C1c2cnc3[nH]ncc3c2C(=O)N1CC1CCNCC1 [Example 57, 7-(piperidin-4-ylmethyl)pyrazolo[3,4-b]pyrrolo[3,4-d]pyridine-6,8(3H,7H)-dione] | – | – | – | – | – | –
193 to 198 | Cc1ccc(-c2ccccc2CN2C(=O)c3cnc4[nH]ncc4c3C2=O)cc1F [Example 146, 7-[(3′-fluoro-4′-methylbiphenyl-2-yl)methyl]pyrazolo[3,4-b]pyrrolo[3,4-d]pyridine-6,8(3H,7H)-dione] | C (C = <50% INHIBITION) | C (C = <50% INHIBITION) | C (C = <50% INHIBITION) | C (C = <50% INHIBITION) | C (C = <50% INHIBITION) | C (C = <50% INHIBITION)
283 to 285 | N#Cc1cccc(CN2C(=O)c3cnc4[nH]nc(Br)c4c3C2=O)c1 [Example 142, 3-[(1-bromo-6,8-dioxo-6,8-dihydropyrazolo[3,4-b]pyrrolo[3,4-d]pyridin-7(3H)-yl)methyl]benzonitrile] | B (B = 50-79% INHIBITION) | A (A = 80-100% INHIBITION) | C (C = <50% INHIBITION) | C (C = <50% INHIBITION) | C (C = <50% INHIBITION) | C (C = <50% INHIBITION)
